Columns and labels:
[1] = system: Candida albicans strain #40 fimbriae (enriched fimbriae EF, 66 kDa fimbrial subunit/adhesin protein); assay: Microtiter plate binding of fimbriae to immobilized glycosphingolipids; settings: GSL immobilized in microtiter wells (0.5 μg/well)
Procedure: Binding of Candida fimbriae to GSLs was further assessed using an assay in which GSLs were immobilized on microtiter plates. […] The amount of fimbriae bound is represented as the absorbance values measured at 405 nm. The concentration of fimbrial protein required for half-maximal binding was determined to be 8 μg/ml under the assay conditions, indicating a reasonably high affinity of fimbriae for asialo-GM1.
Polystyrene microtiter plate wells (Nunc) were coated with asialo-GM1 or ceramide trihexoside (CTH) (Sigma Chem. Co., St. Louis, Mo.). Aliquots of the GSLs (5 μg/ml resuspended in methanol) were added into the wells (100 μl/well) and the plates were incubated overnight at 4° C. The wells were washed three times with 250 μl/well of 10 mM phosphate buffered saline pH 7.4 containing 150 mM NaCl (PBS) supplemented with 0.05% (w/v) bovine serum albumin (Buffer A). […] Wells were washed 5 times with 250 μl/well of Buffer A. Antibody binding to EF was assessed by the addition of a goat anti-mouse heavy and light chain [IgG(H+L)] immunoglobulin G-peroxidase conjugates (Jackson Laboratories) to each well (100 μl/well) and incubated for 1 hour at 37° C. […] The reaction was stopped by an addition of 125 μl/well of 4 mM sodium azide and the absorbance at 405 nm was recorded.

[2] = system: Candida albicans strain #40 fimbriae (enriched fimbriae EF, 66 kDa fimbrial subunit/adhesin protein); assay: Thin-layer chromatography plate binding assay of fimbriae to glycosphingolipids; settings: 10 μg GSL per spot; 100 μg EF/ml; detected with mAb Fm16
Procedure: Bound fimbriae on the TLC plates were visualized with a Protein G affinity-purified anti-C. albicans fimbriae monoclonal antibody, Fm16, obtained from ascites tumor in Balb/c mice as described below and a goat anti-mouse IgG alkaline phosphatase. […] (Lane 2).
The thin-layer chromatography (TLC) plate binding assay was performed as described by Baker et al. (1) with minor modifications. Aluminum-backed silica gel Si60 high performance TLC plates (Merck Kieselgel Si60, no fluorescence indicator, E. Merck, Darmstadt, Germany) were cut to produce 8×2.5 cm plates which were chromatographed with 100% methanol to the top of the plate to remove impurities and the plates were air dried. Glycosphingolipids (GSLs) (10 μg of each GSL) were loaded 1.0 cm above the base of the plate. The following glycosphingolipids purchased from Sigma Co. (St. Louis, Mo.) were used: mono-sialoganglioside (M-GM1), asialoganglioside GM1 (asialo-GM1), asialoganglioside GM2 (asialo-GM2), lactosylcerebroside (LCS), ceramide trihexoside (CTH). GSLs were separated on the TLC plates in chloroform-methanol-water (65:35:8, v/v/v) and air dried. One set of plates was sprayed with 10% sulphuric acid in ethanol and heated at 100°-150° C. for 5-10 min to char the GSLs for visual detection, and the other set was used for the fimbrial binding assay. The four corners of the plate were bent to 90° and the remainder of the assay was done with the TLC plates inverted in all solutions and at room temperature in an incubator shaker (model G25 Gyroshaker, New Brunswick Scientific, New Jersey, U.S.A.) at 20 rpm agitation. The TLC plate was blocked with 50 mM tris-hydroxy-methyl aminomethane pH 7.5 containing 150 mM NaCl (TBS), 0.25% (w/v) gelatin, 3% (w/v) BSA, 5 mM EDTA and 0.05% (v/v) Nonidet P40 in a glass petri dish for 2 hr at room temperature. The blocking solution was aspirated and 10 ml of EF (100 μg EF/ml in 100 mM TBS, pH 7.5) was then added. The fimbriae were allowed to bind to GSLs for 2 hours at room temperature. The plates were gently washed (2×5 min) with 10 ml of 100 mM TBS containing 0.1% (v/v) Tween 20 (TBST). The murine anti-EF monoclonal antibody, Fm16, was diluted 1:200 with TBST and 10 ml was added to the TLC plates. The solution was incubated for 1 hour at room temperature. Unbound antibodies were removed by washing the plates with 10 ml of TBST (2×5 min). The plate was then incubated with 10 ml of goat anti-mouse immunoglobulin G alkaline phosphatase conjugate (Jackson Laboratories) diluted 1:5,000 with TBST for 1 hour at room temperature. The plates were washed (2×5 min.) with 10 ml of TBST. The alkaline phosphatase activity was localized with Nitro Blue Tetrazolium chloride (NBT) and 5-bromo-4-chloro-3-indolyl phosphate (BCIP) dissolved in 100 mM Tris buffer, pH 9.5 containing 100 mM NaCl and 5 mM MgCl2. Color development was quenched by rinsing the TLC plate with deionized water and submerging the plate into a 150 mM EDTA solution pH 8.0 for 3-5 min. The plates were air dried, stored in plastic in the dark until they were photographed.

[3] = system: Candida albicans strain #40 fimbriae (enriched fimbriae EF, 66 kDa fimbrial subunit/adhesin protein); assay: Inhibition of fimbriae binding to immobilized glycosphingolipids by free glycosphingolipids
Procedure: The binding specificity to GSLs was assessed in experiments in which free GSLs were tested for their abilities to inhibit binding of C. albicans fimbriae to immobilized GSLs. These experiments were carried out using the microtiter plate assay described above, and as further detailed in Example 5B. C. albicans fimbriae (50 μg/ml) were preincubated with varying concentrations of asialo-GM1 or CTH at 37° C. for an hour prior to addition into the precoated microtiter wells. In this assay, GSLs were suspended in phosphate buffered saline (PBS) at a sufficiently low concentration to prevent micellar formation. C. albicans fimbriae binding to immobilized asialo-GM1 was reduced by 78% (Diamonds, FIG. 11B) by asialo-GM1.
Polystyrene microtiter plate wells (Nunc) were coated with asialo-GM1 or ceramide trihexoside (CTH) (Sigma Chem. Co., St. Louis, Mo.). Aliquots of the GSLs (5 μg/ml resuspended in methanol) were added into the wells (100 μl/well) and the plates were incubated overnight at 4° C. The wells were washed three times with 250 μl/well of 10 mM phosphate buffered saline pH 7.4 containing 150 mM NaCl (PBS) supplemented with 0.05% (w/v) bovine serum albumin (Buffer A). Excess binding sites were blocked by the addition of 200 μl/well of 5% (w/v) BSA in PBS pH 7.4 and incubation at 37° C. for 1 hour. Wells were washed three times with 250 μl/well of buffer A. Enriched fimbriae ranging from 0 to 40 μg protein/ml in Buffer A were added to the wells (100 μl/well) and incubated for 2 hour at 37° C. Aliquots of mouse anti-EF monoclonal antibodies, Fm16 (diluted 1:500), was added to each well (100 μl) and incubated at 37° C. for 2 hours. Wells were washed 5 times with 250 μl/well of Buffer A. Antibody binding to EF was assessed by the addition of a goat anti-mouse heavy and light chain [IgG(H+L)] immunoglobulin G-peroxidase conjugates (Jackson Laboratories) to each well (100 μl/well) and incubated for 1 hour at 37° C. […] The reaction was stopped by an addition of 125 μl/well of 4 mM sodium azide and the absorbance at 405 nm was recorded. […]

gangliotetraosylceramide: βGal(1-3)βGalNAc(1-4)βGal(1-4)βGlc(1-1)Cer [asialo-GM1]
Concentration of fimbrial protein required for half-maximal binding ([1]; the concentration is that of fimbrial protein): 8 µg/mL | Binding of C. albicans fimbriae to glycosphingolipid on TLC plate [2]: bind specifically | Reduction of fimbriae binding to immobilized asialo-GM1 ([3]; fimbriae 50 μg/ml preincubated with competitor (0 to 15 μg/ml) 1 h at 37° C.): 78% | Concentration required for half-maximal inhibition ([3]; fimbriae 50 μg/ml, immobilized asialo-GM1): 1.44 µg/mL

ceramide trihexoside [CTH, ceramide trihexoside [aGal(1-4)βGal(1-4)βGlc(1-1)Cer]]
Binding of fimbriae to glycosphingolipid coated on wells ([1]; EF 0 to 40 μg protein/ml): failed to bind | Binding of C. albicans fimbriae to glycosphingolipid on TLC plate [2]: failed to bind | Competition of fimbriae binding ([3]; fimbriae 50 μg/ml preincubated with competitor (0 to 15 μg/ml)): No competition

Reference: patent US5641760A, “Method of treating candida infection” (Pence, Inc., priority 1994, dated 1997)
